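The compound was tested at five concentrations on cells cultured in 96-well plates, with a 48-hour exposure period. TGI denotes the concentration required for complete inhibition of growth.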

Some test systems named below: SK-MEL-2 melanoma; SNB-19 CNS; 786-0 renal; DU-145 prostate; CCRF-CEM leukemia; PC-3 prostate; T-47D breast; RXF 393 renal; NCI/ADR-RES ovarian; UACC-62 melanoma.
Holding throughout (experiment): NCI-60 cell line screen, 48 h

`COc1nn(Cc2ccccc2F)c2ccc([N+](=O)[O-])cc12`: the TGI in the experiment with SK-MEL-2 melanoma, in the experiment on SNB-19 CNS, in the experiment with 786-0 renal, in the experiment with DU-145 prostate, with CCRF-CEM leukemia and in the experiment on PC-3 prostate was more than 100 µM throughout. Moreover, the values for the TGI in the experiment on T-47D breast, in the experiment with RXF 393 renal and in the experiment with NCI/ADR-RES ovarian were more than 100 µM, more than 83.6 µM and more than 100 µM, respectively.

Consider `Cc1cccc(-c2cc(=O)c3ccc(C)nc3[nH]2)c1`, for which the TGI is more than 100 µM in the experiment on SK-MEL-2 melanoma; more than 100 µM in the experiment with SNB-19 CNS; more than 100 µM in the experiment with 786-0 renal; more than 56.9 µM in the experiment on DU-145 prostate; more than 22.8 µM in the experiment with CCRF-CEM leukemia; more than 82.9 µM in the experiment on PC-3 prostate. In addition, the TGI with T-47D breast was more than 100 µM; with RXF 393 renal, more than 100 µM; with UACC-62 melanoma, more than 100 µM; with NCI/ADR-RES ovarian, 0.383 µM.

For the compound `N=c1c2c3n(c4c(=O)n(-c5ccccc5)c(=S)n(c(=O)n1-c1ccccc1)c24)CCCCC3`, the TGI in the experiment with SK-MEL-2 melanoma, in the experiment on SNB-19 CNS, with 786-0 renal, in the experiment on DU-145 prostate, with CCRF-CEM leukemia and in the experiment on PC-3 prostate was more than 100 µM in each case. Also, the TGI with T-47D breast, with RXF 393 renal, with UACC-62 melanoma and in the experiment on NCI/ADR-RES ovarian was more than 100 µM in each case.

As for `COC(=O)C1=NN2c3ccccc3C(=O)OCCC2C1` (stereo not drawn), the TGI in the experiment on SK-MEL-2 melanoma, in the experiment on 786-0 renal, in the experiment on DU-145 prostate, in the experiment with CCRF-CEM leukemia, with PC-3 prostate and in the experiment with T-47D breast was more than 100 µM throughout. Further, the TGI in the experiment with RXF 393 renal, in the experiment with UACC-62 melanoma and with NCI/ADR-RES ovarian was more than 100 µM in each case.

Consider `COc1ccc(/C=C2\CN(C)CC3=C2OC(N)=C(C#N)C3c2ccc(OC)cc2)cc1` (stereo not drawn), for which the TGI with SK-MEL-2 melanoma is more than 65.5 µM; with SNB-19 CNS it was more than 100 µM; in the experiment with 786-0 renal, more than 100 µM; in the experiment on DU-145 prostate, more than 100 µM; in the experiment with CCRF-CEM leukemia it was 30.2 µM; in the experiment with PC-3 prostate, more than 53.1 µM. The TGI in the experiment with T-47D breast is more than 100 µM; in the experiment with RXF 393 renal, more than 86.9 µM; with UACC-62 melanoma, more than 100 µM; in the experiment on NCI/ADR-RES ovarian it was more than 100 µM.

Consider `CCC(=O)OCc1ccc2oc(=O)c(C(=O)Oc3cncc(Cl)c3)cc2c1`, for which the TGI in the experiment with SK-MEL-2 melanoma was more than 100 µM; in the experiment with SNB-19 CNS it was more than 100 µM; in the experiment on 786-0 renal it was more than 100 µM; with DU-145 prostate, more than 100 µM; with CCRF-CEM leukemia it was 24.8 µM; with PC-3 prostate, more than 100 µM. The TGI in the experiment on T-47D breast, in the experiment with RXF 393 renal, with UACC-62 melanoma and in the experiment with NCI/ADR-RES ovarian was more than 100 µM each time.

As for `Cc1cc(C)c2c(n1)S(=O)(=O)N(CCCN1CCN(c3cccc(C(F)(F)F)c3)CC1)/C(=C(\O)c1ccccc1)C2=O`, the TGI was more than 100 µM with SK-MEL-2 melanoma; more than 100 µM in the experiment with SNB-19 CNS; 16.5 µM in the experiment on 786-0 renal; more than 100 µM with DU-145 prostate; more than 100 µM in the experiment with CCRF-CEM leukemia; more than 100 µM in the experiment on PC-3 prostate. In addition, the TGI in the experiment with T-47D breast is more than 100 µM; with RXF 393 renal it was 20.9 µM; with UACC-62 melanoma it was 27.6 µM; in the experiment on NCI/ADR-RES ovarian, 22.4 µM.

With `COC(=O)c1ccc2n1C1CC3CC(CC2C3)C1`, the TGI with SK-MEL-2 melanoma, with SNB-19 CNS, with 786-0 renal, in the experiment on DU-145 prostate, with CCRF-CEM leukemia and in the experiment with PC-3 prostate was more than 100 µM each time. Also, the TGI in the experiment with T-47D breast is more than 100 µM; in the experiment with RXF 393 renal it was 96.6 µM; with UACC-62 melanoma it was more than 100 µM; in the experiment on NCI/ADR-RES ovarian it was more than 100 µM.

For the compound `CC(C)CCCC(C)[C@H]1CC[C@H]2[C@@H]3CC[C@H]4C[C@@H](CCC=C(c5cc(Cl)c(O)c(C(=O)OC(C)(C)C)c5)c5cc(Cl)c(O)c(C(=O)OC(C)(C)C)c5)CC[C@]4(C)[C@H]3CC[C@]12C` (stereo partly drawn), the TGI in the experiment on SK-MEL-2 melanoma, in the experiment with SNB-19 CNS, in the experiment with 786-0 renal, in the experiment with DU-145 prostate, with CCRF-CEM leukemia and with PC-3 prostate was more than 50 µM each time. For the same compound, the TGI in the experiment on T-47D breast, with RXF 393 renal, in the experiment on UACC-62 melanoma and with NCI/ADR-RES ovarian was more than 50 µM throughout.

Take `O=C(O)c1c(-c2c3ccc(=O)cc-3oc3cc(O)ccc23)cc2ccccc2c1-c1ccccc1`: the TGI with SK-MEL-2 melanoma was more than 100 µM; in the experiment on SNB-19 CNS it was more than 100 µM; with 786-0 renal, more than 100 µM; with DU-145 prostate, more than 100 µM; with CCRF-CEM leukemia, more than 67.3 µM; with PC-3 prostate it was more than 100 µM. Further, the TGI with T-47D breast, in the experiment on RXF 393 renal, with UACC-62 melanoma and in the experiment on NCI/ADR-RES ovarian was more than 100 µM each time.

Regarding `COC1(OC)N=C(N)C2(C#N)C(C)CC(=O)N(N(C)C)C12C#N` (stereo not drawn), the TGI in the experiment with SK-MEL-2 melanoma, in the experiment on SNB-19 CNS, in the experiment on 786-0 renal, with DU-145 prostate, with CCRF-CEM leukemia and with PC-3 prostate was more than 100 µM throughout. Also, the TGI in the experiment with T-47D breast, with RXF 393 renal, in the experiment on UACC-62 melanoma and with NCI/ADR-RES ovarian was more than 100 µM throughout.

Regarding `NC(=O)c1n[nH]n(-c2ccccc2)c1=O`, the TGI in the experiment on SK-MEL-2 melanoma, in the experiment on SNB-19 CNS, in the experiment on 786-0 renal, with DU-145 prostate, in the experiment on CCRF-CEM leukemia and in the experiment on PC-3 prostate was more than 100 µM throughout. Also, the TGI with T-47D breast, in the experiment on RXF 393 renal, in the experiment on UACC-62 melanoma and in the experiment on NCI/ADR-RES ovarian was more than 100 µM each time.

As for `O=C(O)c1c(CC(Cc2ccc3c(c2)CCCC3)C(=O)O)ccc2c1CCCC2` (stereo not drawn), the TGI in the experiment on SK-MEL-2 melanoma, in the experiment with SNB-19 CNS, with 786-0 renal, in the experiment with DU-145 prostate, with CCRF-CEM leukemia and in the experiment with PC-3 prostate was more than 100 µM in each case. Besides, the TGI in the experiment on T-47D breast, in the experiment on RXF 393 renal, in the experiment with UACC-62 melanoma and in the experiment on NCI/ADR-RES ovarian was more than 100 µM throughout.

Values taken from PubChem BioAssay (NCI).
